The values below come from EPA's ToxValDB 9.5 (doi:10.2903/j.efsa.2015.4024).

What is called NOAEL is the highest dose or exposure tested at which no adverse effect was seen.

This data set has as its system Rattus norvegicus.
The mark [1] stands for this setting: subchronic, duration: 90 days, oral, gavage, M/F, Crj:CD, clinical signs.
[2] abbreviates: subchronic, duration: 90 days, oral, diet.

SMILES strings stand for the structures.

Take `Cc1cc(SC(=O)CC(C)C)c(C)o1` [2,5-Dimethyl-3-thioisovalerylfuran]: the NOEL (subchronic, duration: 90 days) is 0.73 mg/kg-day.
As for `CC1CC(S)C(C)O1` (centres undefined) [2,5-Dimethyltetrahydrofuran-3-thiol], under setting [1], the NOAEL is 5 mg/kg-day.
Where the note is “subchronic, duration: 90 days, oral”, `CSC(=O)c1ccco1` [2-Furancarbothioic acid, S-methyl ester] showed an NOAEL of 6.63 mg/kg-day.
`CC(=O)SC1=C(C)OCC1` [2-Methyl-3-thioacetoxy-4,5-dihydrofuran] returned an NOEL (chronic, duration: 1 years, oral, diet) of 8.3 mg/kg-day.
`Cc1occc1SSSSc1ccoc1C` [Bis(2-methyl-3-furyl) tetrasulfide] showed an NOEL (subchronic, duration: 90 days) of 0.56 mg/kg-day.
`Cc1occc1SSc1ccoc1C` [Bis(2-methyl-3-furyl)disulfide] registered an NOEL under setting [2] of 0.45 mg/kg-day.
`CCOC(=O)CCSCc1ccco1` [Ethyl 3-(furfurylthio)propionate] gave an NOEL (subchronic, duration: 90 days) of 17 mg/kg-day.
With `Cc1cc(SSc2cc(C)oc2C)c(C)o1` [Furan, 3,3'-dithiobis[2,5-dimethyl-], under setting [2], the NOEL amounted to 0.45 mg/kg-day.
As for `CC1OCCC1S` (centres undefined) [Tetrahydro-2-methyl-3-furanthiol], the NOAEL under setting [1] came out at 5 mg/kg-day.
